Data published in the Deep4Chem optical property database.
Each block holds one molecule with its values, some of them ahead of it.

Assay: solvent given as SMILES
[1] = in c1cc(-c2cccc(-n3c4ccccc4c4ccccc43)c2)cc(-n2c3ccccc3c3ccccc32)c1

SMILES: Cc1cc(C)c(-c2cc(-c3c(C)cc(C)cc3C)c3ccc4c(-c5c(C)cc(C)cc5C)cc(-c5c(C)cc(C)cc5C)c5ccc2c3c54)c(C)c1
emission maximum (in ClCCl): 411 nm

SMILES: CC(C)(C)c1ccc2c(c1)c1cc(C(C)(C)C)ccc1n2-c1cc(C(=O)c2ccccc2)cc(-n2c3ccc(C(C)(C)C)cc3c3cc(C(C)(C)C)ccc32)c1
emission maximum (in Cc1ccccc1): 466.36 nm | emission maximum [1]: 470.81 nm

SMILES: N#Cc1nn(-c2cccc(C(F)(F)F)c2)nc1N1CCCC1
emission maximum (in CC#N): 430 nm

SMILES: C#Cn1c(-c2cc(-c3nc4ccc(C)cc4n3C#C)cc(-c3nc4ccc(C)cc4n3C#C)c2)nc2ccc(C)cc21
emission maximum (in C1CCOC1): 389.5 nm

SMILES: Cc1ccc(C2=C3C=CC(=[N+](C)C)C=C3[Si](C)(C)c3cc(N(C)C)ccc32)c(C)c1
emission maximum (in O): 660 nm

SMILES: c1cc2ccc3ccc4cc3c2cc1c1ccc2ccc3ccc(cc3c2c1)c1ccc2ccc3ccc4cc3c2c1
emission maximum (in Cc1ccccc1): 419 nm

SMILES: Cc1cc(C)c(C2=C3C=c4c(c5ccc(C(C)(C)C)cc5c5cc(C(C)(C)C)ccc45)=[N+]3[B-](F)(F)n3c2cc2c4ccc(C(C)(C)C)cc4c4cc(C(C)(C)C)ccc4c23)c(C)c1
emission maximum (in C1CCCCC1): 707 nm | emission maximum (in C1CCOC1): 711 nm | emission maximum (in CC#N): 711 nm | emission maximum (in Cc1ccccc1): 715 nm | emission maximum (in ClCCl): 715 nm

SMILES: Cc1ccc(C2=C3C=CC(Cl)=[N+]3[B-](F)(F)n3c(Cl)ccc32)cc1
emission maximum (in C1CCCCC1): 525 nm | emission maximum (in C1CCOC1): 523 nm | emission maximum (in CC#N): 520 nm | emission maximum (in CCOC(C)=O): 521 nm | emission maximum (in CO): 519 nm | emission maximum (in Cc1ccccc1): 529 nm | emission maximum (in ClC(Cl)Cl): 526 nm

SMILES: CC1(C)c2ccccc2N(c2ccc(-c3cc(C#N)c(C#N)cc3-c3ccc(N4c5ccccc5C(C)(C)c5ccccc54)cc3)cc2)c2ccccc21
emission maximum (in Cc1ccccc1): 532 nm | emission maximum [1]: 499 nm

SMILES: Cc1ccc(-c2ccc(-c3ccc(-c4ccc(-c5ccc(C)cc5)cc4)c(/C(=C(/c4ccccc4)c4cc(-c5ccc(-c6ccc(C)cc6)cc5)ccc4-c4ccc(-c5ccc(C)cc5)cc4)c4ccccc4)c3)cc2)cc1
emission maximum (in C1CCOC1): 498 nm

SMILES: CC1(C)c2ccccc2N(c2cccc(S(=O)(=O)c3cccc(N4c5ccccc5C(C)(C)c5ccccc54)c3)c2)c2ccccc21
emission maximum (in C1CCOC1): 422 nm | emission maximum (in CCCCC(CC)n1c2ccc(-n3c4ccccc4c4ccccc43)cc2c2cc(-n3c4ccccc4c4ccccc43)ccc21): 509.28 nm | emission maximum (in Cc1ccccc1): 489 nm | emission maximum (in ClC(Cl)Cl): 515 nm | emission maximum (in c1cc(-n2c3ccccc3c3ccccc32)cc(-n2c3ccccc3c3ccccc32)c1): 505.12 nm

SMILES: O=C1NC(=O)c2ccc(N3CCCCC3)c3cccc1c23
emission maximum (in ClC(Cl)Cl): 517 nm

SMILES: CC(=O)[B-]1(C(C)=O)OC(c2ccccc2)=CC(c2ccccc2)=[O+]1
emission maximum (in CC#N): 400 nm | emission maximum (in ClC(Cl)(Cl)Cl): 402 nm

SMILES: Cc1cscc1-c1cc2c3cc(-c4cscc4C)c4nc(C(F)(F)C(F)(F)C(F)(F)F)nc5c(-c6cscc6C)cc(c6cc(-c7cscc7C)c7nc(C(F)(F)C(F)(F)C(F)(F)F)nc1c7c26)c3c45
emission maximum (in C1CCOC1): 551 nm

SMILES: CC(C)(C)c1ccc2c(c1)c1cc3c4cc(C(C)(C)C)ccc4c4c5c6ccc(C(C)(C)C)cc6c6cc7c8cc(C(C)(C)C)ccc8c8c2c1c(c34)c(c78)c65
emission maximum (in CCCCCC): 679.35 nm | emission maximum (in CCOCC): 679.9 nm | emission maximum (in Cc1ccccc1): 685.4 nm

SMILES: c1ccc(N(c2ccccc2)c2c3ccccc3cc3ccccc23)cc1
emission maximum (in Cc1ccccc1): 489 nm

SMILES: C=Cc1ccc(OC)cc1
emission maximum (in C1CCCCC1): 322 nm | emission maximum (in CC#N): 323 nm

SMILES: CC(C)(C)OC(=O)CN1CCN(c2ccc3c(-c4ccc(I)cc4)c4ccc(=[N+]5CCN(CC(=O)OC(C)(C)C)CC5)cc-4oc3c2)CC1
emission maximum (in ClCCl): 586 nm

SMILES: F[B-]1(F)n2c(ccc2-c2cccs2)C(C(F)(F)F)=C2C=CC(c3cccs3)=[N+]21
emission maximum (in CCCCCC): 674 nm

SMILES: CCCCCCCCOc1ccc2c3cccc4c(OCCCCCCCC)ccc(c5cccc1c52)c43
emission maximum (in C1CCOC1): 468.03 nm | emission maximum (in Cc1ccccc1): 467.99 nm | emission maximum (in ClC(Cl)(Cl)Cl): 471.01 nm | emission maximum (in ClC(Cl)Cl): 471.01 nm | emission maximum (in ClCCl): 469.99 nm | emission maximum (in c1ccncc1): 474.01 nm

SMILES: O=c1c2cc3[nH]c4c(S(=O)(=O)O)cc(S(=O)(=O)O)cc4c(=O)c3cc2[nH]c2c(S(=O)(=O)O)cc(S(=O)(=O)O)cc12
emission maximum (in O): 550 nm

SMILES: CC(C)[Si](C#Cc1c2nsnc2c(C#C[Si](C(C)C)(C(C)C)C(C)C)c2nc3c(ccc4cc5ccccc5cc43)nc12)(C(C)C)C(C)C
emission maximum (in CCCCCC): 605 nm

SMILES: COc1cc(N(CC(=O)[O-])CC(=O)[O-])c2nc(COc3cc(C)ccc3N(CC(=O)[O-])CC(=O)[O-])ccc2c1
emission maximum (in O): 500 nm

SMILES: Cc1cc(-c2nc(-c3ccccc3)nc(-c3ccccc3)n2)ccc1N1c2ccccc2CCc2ccccc21
emission maximum (in Cc1ccccc1): 481.75 nm

SMILES: [NH3+]c1ccc2ccc([O-])cc2c1
emission maximum (in O): 425 nm

Next, values leading:

emission maximum (in C1CCOC1): 571 nm | emission maximum (in CC#N): 600 nm | emission maximum (in CCO): 583 nm | emission maximum (in CCOC(C)=O): 565 nm | emission maximum (in ClCCl): 582 nm | emission maximum (in c1ccccc1): 534 nm
SMILES: CC1(C)CC(/C=C/c2ccc(-n3c4ccccc4c4ccccc43)cc2)=CC(=C(C#N)C#N)C1

emission maximum (in C1COCCO1): 436 nm | emission maximum (in CC#N): 432 nm | emission maximum (in CCCCOCCCC): 430 nm | emission maximum (in CCOC(C)=O): 433 nm
SMILES: Clc1nc(Nc2ccccc2)nc(Nc2ccc3cc4ccccc4cc3c2)n1

emission maximum (in CO): 435 nm
SMILES: N#Cc1ccc(-c2nc(-c3ccccc3)c(-c3ccccc3)[nH]2)cc1

emission maximum (in ClCCl): 449 nm
SMILES: COc1cc(OC)cc(C2=CC(c3ccccc3)=C(c3ccccc3)C2)c1

emission maximum (in ClCCl): 527 nm
SMILES: Clc1ccc2nc3cc4ccccc4cc3c(-c3ccccc3)c2c1

emission maximum (in CO): 420 nm
SMILES: Clc1ccc(/C=C(\c2ccccc2)c2nc3ccccc3o2)cc1

emission maximum (in CCOC(C)=O): 404 nm
SMILES: OCc1cc2c(cc3ccc4cccc5ccc2c3c45)[nH]1

emission maximum (in ClCCl): 393 nm
SMILES: c1ccc(B2Nc3cc4c(cc3-c3occc32)NB(c2ccccc2)c2ccoc2-4)cc1

emission maximum (in ClC(Cl)Cl): 460 nm
SMILES: CCN(CC)c1ccc2cc(-c3cn4cc5ccccc5cc4n3)c(=O)oc2c1

emission maximum (in CCO): 520 nm | emission maximum (in ClCCl): 504 nm
SMILES: N#Cc1cnc(-c2c3ccccc3c(-c3ccccc3)c3ccccc23)nc1

emission maximum (in C1CCCCC1): 406 nm | emission maximum (in CC#N): 514 nm | emission maximum (in CO): 489 nm | emission maximum (in ClC(Cl)Cl): 479 nm
SMILES: CN(C)c1ccc(C#Cc2ccc(-c3nc(C#N)c(C#N)n3C)cc2)cc1

emission maximum (in ClC(Cl)Cl): 682 nm
SMILES: CN1C(=CC2=C([O-])C(=Cc3oc4ccccc4[n+]3C)C2=C(C#N)C#N)Sc2ccccc21

emission maximum (in C1CCOC1): 360.5 nm
SMILES: CCCCCCCCCCn1c(-c2cc(-c3nc4ccccc4n3CCCCCCCCCC)cc(-c3nc4ccccc4n3CCCCCCCCCC)c2)nc2ccccc21

emission maximum (in C1CCCCC1): 433 nm | emission maximum (in C1CCOC1): 535 nm | emission maximum (in CC#N): 610 nm | emission maximum (in CS(C)=O): 616 nm | emission maximum (in ClCCl): 565 nm
SMILES: C(#Cc1ncnc2ccccc12)c1ccc(N(c2ccccc2)c2ccccc2)cc1

emission maximum (in ClC(Cl)Cl): 410 nm
SMILES: Cc1ccc(-n2c3ccc(-c4ccc(-c5nc6ccccc6n5-c5ccccc5)cc4)cc3c3cc(-c4ccc(-c5nc6ccccc6n5-c5ccccc5)cc4)ccc32)cc1

emission maximum (in C1CCCCC1): 390 nm
SMILES: C[Si](C)(C)C#Cc1ccc(C#Cc2cnc(C#Cc3ccccc3)nc2)cc1

emission maximum (in CC#N): 628 nm | emission maximum (in CCCCCC): 623 nm | emission maximum (in CCOC(C)=O): 628 nm | emission maximum (in CO): 620 nm | emission maximum (in ClCCl): 630 nm
SMILES: N#CSC1=CC2=C(c3ccccc3)c3cc(SC#N)c(N4CCOCC4)n3[B-](F)(F)[N+]2=C1N1CCOCC1
